Test results reported in PubChem BioAssay (NCI).
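These data come from cells grown in 96-well plates and exposed to compound for 48 hours at five concentrations. TGI is the concentration that stops growth completely.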

How the values were obtained:
Assay in all cases: growth of human tumour cells (NCI), 48 h
DMS 273 small cell lung = tested on: DMS 273 small cell lung
HCT-116 colon = tested on: HCT-116 colon
SNB-75 CNS = tested on: SNB-75 CNS
DLD-1 colon = tested on: DLD-1 colon
SK-MEL-28 melanoma = tested on: SK-MEL-28 melanoma
DMS 114 small cell lung = tested on: DMS 114 small cell lung
UO-31 renal = tested on: UO-31 renal
TK-10 renal = tested on: TK-10 renal
LOX IMVI melanoma = tested on: LOX IMVI melanoma
OVCAR-4 ovarian = tested on: OVCAR-4 ovarian
MOLT-4 leukemia = tested on: MOLT-4 leukemia
T-47D breast = tested on: T-47D breast
MDA-MB-435 = tested on: MDA-MB-435
SW-620 colon = tested on: SW-620 colon
HCC-2998 colon = tested on: HCC-2998 colon
DU-145 prostate = tested on: DU-145 prostate
UACC-257 melanoma = tested on: UACC-257 melanoma
NCI-H23 lung = tested on: NCI-H23 lung
A498 renal = tested on: A498 renal
KM12 colon = tested on: KM12 colon
SF-295 CNS = tested on: SF-295 CNS
HS 578T breast = tested on: HS 578T breast
U251 CNS = tested on: U251 CNS
SF-268 CNS = tested on: SF-268 CNS
HOP-92 NSCLC = tested on: HOP-92 NSCLC
CCRF-CEM leukemia = tested on: CCRF-CEM leukemia
CAKI-1 renal = tested on: CAKI-1 renal
OVCAR-5 ovarian = tested on: OVCAR-5 ovarian
SNB-78 CNS = tested on: SNB-78 CNS
OVCAR-3 ovarian = tested on: OVCAR-3 ovarian
M14 melanoma = tested on: M14 melanoma
NCI/ADR-RES ovarian = tested on: NCI/ADR-RES ovarian
COLO 205 colon = tested on: COLO 205 colon
HL-60(TB) leukemia = tested on: HL-60(TB) leukemia
MALME-3M melanoma = tested on: MALME-3M melanoma
NCI-H226 lung = tested on: NCI-H226 lung
HCT-15 colon = tested on: HCT-15 colon
LXFL 529 NSCLC = tested on: LXFL 529 NSCLC
MDA-N = tested on: MDA-N
SNB-19 CNS = tested on: SNB-19 CNS
NCI-H522 lung = tested on: NCI-H522 lung
K-562 leukemia = tested on: K-562 leukemia
OVCAR-8 ovarian = tested on: OVCAR-8 ovarian
EKVX NSCLC = tested on: EKVX NSCLC
MCF7 breast = tested on: MCF7 breast
M19-MEL melanoma = tested on: M19-MEL melanoma
SN12C renal = tested on: SN12C renal
HOP-62 NSCLC = tested on: HOP-62 NSCLC
MDA-MB-231 breast = tested on: MDA-MB-231 breast
786-0 renal = tested on: 786-0 renal
KM20L2 colon = tested on: KM20L2 colon
SR leukemia = tested on: SR leukemia
UACC-62 melanoma = tested on: UACC-62 melanoma
NCI-H460 lung = tested on: NCI-H460 lung
SF-539 CNS = tested on: SF-539 CNS
SK-MEL-5 melanoma = tested on: SK-MEL-5 melanoma
PC-3 prostate = tested on: PC-3 prostate
RPMI-8226 leukemia = tested on: RPMI-8226 leukemia
SK-OV-3 ovarian = tested on: SK-OV-3 ovarian
IGROV1 ovarian = tested on: IGROV1 ovarian
HT29 colon = tested on: HT29 colon
A549 NSCLC = tested on: A549 NSCLC
ACHN renal = tested on: ACHN renal
SK-MEL-2 melanoma = tested on: SK-MEL-2 melanoma
RXF 393 renal = tested on: RXF 393 renal
HOP-18 NSCLC = tested on: HOP-18 NSCLC

CC1(c2cccc(C3CCC4(C=CC3=O)OCCO4)c2)OCCO1 (stereo unspecified)
TGI (DMS 273 small cell lung): 22.9 µM | TGI (HCT-116 colon): 13.2 µM | TGI (SNB-75 CNS): 30.3 µM | TGI (DLD-1 colon): 11 µM | TGI (SK-MEL-28 melanoma): 29.6 µM | TGI (DMS 114 small cell lung): 3.68 µM | TGI (UO-31 renal): 12.7 µM | TGI (TK-10 renal): 20.3 µM | TGI (LOX IMVI melanoma): 27.8 µM | TGI (OVCAR-4 ovarian): 18.1 µM | TGI (MOLT-4 leukemia): 12 µM | TGI (T-47D breast): 23.5 µM | TGI (MDA-MB-435): 26.1 µM | TGI (SW-620 colon): 8.07 µM | TGI (HCC-2998 colon): 33.1 µM | TGI (DU-145 prostate): 31.8 µM | TGI (UACC-257 melanoma): 21.5 µM | TGI (NCI-H23 lung): 24 µM | TGI (A498 renal): 33.5 µM | TGI (KM12 colon): 33.4 µM | TGI (SF-295 CNS): > 56.7 µM | TGI (HS 578T breast): 41.8 µM | TGI (U251 CNS): 33.8 µM | TGI (SF-268 CNS): 36 µM | TGI (HOP-92 NSCLC): 17.8 µM | TGI (CCRF-CEM leukemia): 10.5 µM | TGI (CAKI-1 renal): 21.1 µM | TGI (OVCAR-5 ovarian): 32.2 µM | TGI (SNB-78 CNS): 48.7 µM | TGI (OVCAR-3 ovarian): 13 µM | TGI (M14 melanoma): 20.1 µM | TGI (NCI/ADR-RES ovarian): 31.5 µM | TGI (COLO 205 colon): 18.6 µM | TGI (HL-60(TB) leukemia): 20 µM | TGI (MALME-3M melanoma): 10.9 µM | TGI (NCI-H226 lung): 49.2 µM | TGI (HCT-15 colon): 14.7 µM | TGI (LXFL 529 NSCLC): 3.97 µM | TGI (MDA-N): 25.2 µM | TGI (SNB-19 CNS): > 45.9 µM | TGI (NCI-H522 lung): 3.53 µM | TGI (K-562 leukemia): 25.1 µM | TGI (OVCAR-8 ovarian): 30.9 µM | TGI (EKVX NSCLC): 37.5 µM | TGI (MCF7 breast): 25.9 µM | TGI (M19-MEL melanoma): 25.8 µM | TGI (SN12C renal): 27.7 µM | TGI (HOP-62 NSCLC): 47.9 µM | TGI (MDA-MB-231 breast): 26 µM | TGI (786-0 renal): 11 µM | TGI (KM20L2 colon): 16.8 µM | TGI (SR leukemia): 12.5 µM | TGI (UACC-62 melanoma): 18.1 µM | TGI (NCI-H460 lung): 30.6 µM | TGI (SF-539 CNS): 28.5 µM | TGI (SK-MEL-5 melanoma): 28 µM | TGI (PC-3 prostate): 31.1 µM | TGI (RPMI-8226 leukemia): 28.9 µM | TGI (SK-OV-3 ovarian): > 67.5 µM | TGI (IGROV1 ovarian): 32.7 µM | TGI (HT29 colon): 25.8 µM | TGI (A549 NSCLC): 34 µM | TGI (ACHN renal): 15.5 µM | TGI (SK-MEL-2 melanoma): 27.4 µM | TGI (RXF 393 renal): 11.5 µM

COC(=O)C1Cc2c([nH]c3ccccc23)C=N1 (stereo unspecified)
TGI (DMS 273 small cell lung): > 100 µM | TGI (HCT-116 colon): > 100 µM | TGI (SNB-75 CNS): > 100 µM | TGI (DLD-1 colon): > 100 µM | TGI (SK-MEL-28 melanoma): > 100 µM | TGI (DMS 114 small cell lung): > 100 µM | TGI (UO-31 renal): > 100 µM | TGI (TK-10 renal): > 100 µM | TGI (LOX IMVI melanoma): > 100 µM | TGI (OVCAR-4 ovarian): > 100 µM | TGI (MOLT-4 leukemia): > 100 µM | TGI (SW-620 colon): > 100 µM | TGI (HCC-2998 colon): > 100 µM | TGI (UACC-257 melanoma): > 100 µM | TGI (NCI-H23 lung): > 100 µM | TGI (A498 renal): > 100 µM | TGI (KM12 colon): > 100 µM | TGI (SF-295 CNS): > 100 µM | TGI (U251 CNS): > 100 µM | TGI (SF-268 CNS): > 100 µM | TGI (HOP-92 NSCLC): > 100 µM | TGI (HOP-18 NSCLC): > 100 µM | TGI (CCRF-CEM leukemia): > 100 µM | TGI (CAKI-1 renal): > 100 µM | TGI (OVCAR-5 ovarian): > 100 µM | TGI (SNB-78 CNS): > 100 µM | TGI (OVCAR-3 ovarian): > 100 µM | TGI (M14 melanoma): > 100 µM | TGI (COLO 205 colon): > 100 µM | TGI (HL-60(TB) leukemia): > 100 µM | TGI (MALME-3M melanoma): > 100 µM | TGI (NCI-H226 lung): > 100 µM | TGI (HCT-15 colon): > 100 µM | TGI (LXFL 529 NSCLC): > 100 µM | TGI (SNB-19 CNS): > 100 µM | TGI (NCI-H522 lung): > 100 µM | TGI (K-562 leukemia): > 100 µM | TGI (OVCAR-8 ovarian): > 100 µM | TGI (EKVX NSCLC): > 100 µM | TGI (M19-MEL melanoma): > 100 µM | TGI (SN12C renal): > 100 µM | TGI (HOP-62 NSCLC): > 100 µM | TGI (786-0 renal): > 100 µM | TGI (KM20L2 colon): > 100 µM | TGI (SR leukemia): > 100 µM | TGI (UACC-62 melanoma): > 100 µM | TGI (NCI-H460 lung): > 100 µM | TGI (SF-539 CNS): > 100 µM | TGI (SK-MEL-5 melanoma): > 100 µM | TGI (RPMI-8226 leukemia): > 100 µM | TGI (SK-OV-3 ovarian): > 100 µM | TGI (IGROV1 ovarian): > 100 µM | TGI (HT29 colon): > 100 µM | TGI (A549 NSCLC): > 100 µM | TGI (ACHN renal): > 100 µM | TGI (RXF 393 renal): > 100 µM
